Test results: EP1967187A1, “Composition based on rutin and L-lysine” (Ennamany, Rachid, priority 2007, dated 2008)

Molecular target: T1, arginase Th2-dépendante (Homo sapiens, UniProt P05089)
T1 sequence (P05089 1-322): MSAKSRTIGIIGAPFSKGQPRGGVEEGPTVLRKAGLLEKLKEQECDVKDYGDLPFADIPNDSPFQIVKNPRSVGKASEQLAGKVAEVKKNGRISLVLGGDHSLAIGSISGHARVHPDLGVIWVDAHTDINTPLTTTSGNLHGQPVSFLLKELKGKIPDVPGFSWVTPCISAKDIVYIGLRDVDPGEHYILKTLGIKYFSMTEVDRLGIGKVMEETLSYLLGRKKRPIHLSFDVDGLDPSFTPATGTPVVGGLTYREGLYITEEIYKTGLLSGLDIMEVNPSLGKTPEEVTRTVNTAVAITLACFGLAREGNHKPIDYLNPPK
Experiment: Inhibition of Th2-dependent arginase
Type: biochemical

Compound: NCCCC[C@H](N)C(=O)O [L-Lysine, L-lysine]
- action sur l'arginase Th2-dépendante: action inhibitrice
